# Non-standard residues stand in square brackets, D forms with d. Residues, ends and D or L forms follow the SMILES beside them.
# Experiments:
# Proteinase K = target: T1, Proteinase K (Parengyodontium album, UniProt P06873); test: Fluorescence anisotropy binding, non-target protease; details: Figure S3A
# T1 construct: purchased Sigma-Aldrich
# Description: Figure S3. The fluorescent anisotropy evaluation of binding affinity between DPMD peptide with Proteinase K (A), and inhibitor-saturated and blocked trypsin (B) and chymotrypsin (C). Trypsin/Chymotrypsin was saturated and blocked by aprotinin (Yeasen Biotechnology, trypsin/chymotrypsin inhibitor). (D-H) The fluorescent anisotropy evaluation of binding affinity between DPMD peptide with elastase (D), lipase (E), amylase(F), carboxypeptidase (G), albumin (H) and immunoglobulins (I).
# Figure S4. The DLS analysis of trypsin, chymotrypsin and DPMD with/without trypsin or chymotrypsin. […]
# data acquisition. A series of enzyme solutions with varying concentrations (maximum concentrations of trypsin and chymotrypsin were 20 μM each) were prepared in Tris-HCl buffer (10 mM Tris, 150 mM NaCl, 1 mM EDTA, pH 7.0). These enzyme solutions were added to the 96-well plate and incubated with 100 nM DPMD at room temperature for 30 minutes, with triplicates.
# Fluorescence polarization was measured with an excitation wavelength of 470 nm and an emission […]
# Plot the fluorescence intensity versus concentration data as scatter plots using Origin software.
# For data analysis, fit the concentration-fluorescence polarization data with the logistic function in Origin 2021 software to obtain the fitting curve and determine the half-maximal effective concentration (EC50). […]
# [1] = Turbidity and CLSM phase separation of DPMD with trypsin/chymotrypsin; type: physicochemical
# Description: Next, these intriguing microaggregates were further investigated using fluorescence recovery after photobleaching (FRAP) experiments. […] To directly visualize the liquid–solid phase separation process, we performed time‐lapse confocal microscopy on mixtures of DPMD and trypsin/chymotrypsin. Initially, numerous small, spherical DPMD‐rich microdroplets appeared upon enzyme addition and gradually grew into larger droplets within minutes (Figure S5A, Supporting Information). […] We next examined whether the enzyme–peptide aggregates remain stable under varying physiological conditions, such as changes in pH and enzyme concentration.
# Figure S5. (A) The CLSM images of DPMD with enzyme and DPMD without enzyme under different time. (B) Turbidity measurements result illustrating the phase separation of DPMD -treated trypsin and chymotrypsin at different concentrations or pH shifts . % represents the mass fraction of the DPMD/trypsin/chymotrypsin . (C) The CLSM images of DPMD with enzyme, DPMD without enzyme and DPMD with enzyme and aprotinin. (D&E) The CLSM images of DPMD with enzyme and DPMD without enzyme under different pH (D) or enzyme concentrations […]
# (§1) (1 picture or pasted object on this page, not shown here)
# 0.22μm filter to remove residue. The calcium content of the supernatant was measured using the Calcium ion detection kit (Beyotime) according to the recommended method. […]
# Peptide and enzyme solutions were prepared at varying concentrations and mixed at a 1:1 volume ratio. Solution turbidity was quantitatively assessed by monitoring absorbance at 405 nm using a BioTek spectrophotometer. For fluorescence-based characterization, peptides were labeled with FITC while enzymes were labeled with Cy5. […] For fluorescence recovery after photobleaching (FRAP) analysis, enzyme-aggregated patches were selectively bleached at 60% laser power using 488/640 nm lasers for 10 s, followed by time-lapse imaging at 1-min intervals. […] Fluorescence intensity in the photobleached region was measured using ImageJ software , with values normalized to pre-bleach baselines. […]
# [2] = system: trypsin and chymotrypsin in ascitic fluid; test: Ex vivo ascitic fluid from lethal POPF model: aggregates, FRAP, enzyme activity; type: biochemical, rat
# Description: This ex vivo evidence confirms that DPMD mitigates POPF via an LSPS‐based mechanism: by assembling leaking pancreatic enzymes into non‐fusing microaggregates, DPMD effectively isolates and inactivates the enzymes, thereby preventing proteolytic damage to surrounding tissues.
# Figure S13. (A) The evaluation of fluorescence polarization of DPMD with different volumes ascites. ( B) Representative time -lapse FRAP images howling the pre -bleach and recovery signals of DPMD -treated asciteschymotrypsin ex vitro. Circles indicate the bleached area. Scale bars, 10 μm and 1 μm (zoomed -in image). (C) Time-lapse images of DPMD-ascites mixture aggregates, illustrating the non-fusion of two aggregates. (D) The inhibition evaluation of enzymes in ascites bioactivity for trypsin and chymotrypsin by DPMD.
# as §1
# T1 sequence (P06873 106-384): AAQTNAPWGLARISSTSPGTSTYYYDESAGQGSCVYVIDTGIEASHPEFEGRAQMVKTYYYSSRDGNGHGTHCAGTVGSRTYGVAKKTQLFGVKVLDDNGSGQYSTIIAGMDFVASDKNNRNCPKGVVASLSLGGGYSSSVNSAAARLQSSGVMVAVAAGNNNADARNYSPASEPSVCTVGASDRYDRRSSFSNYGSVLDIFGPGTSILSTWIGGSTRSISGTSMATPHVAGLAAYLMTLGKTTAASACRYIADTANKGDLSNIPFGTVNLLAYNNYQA
structure (smiles),measurement,setting,value
"CC[C@@H](C)[C@@H](NC(=O)[C@@H](CCC(N)=O)NC(=O)[C@H](NC(=O)[C@@H](Cc1ccc(O)cc1)NC(=O)CNC(=O)[C@@H](CC(C)C)NC(=O)[C@H](NC(=O)[C@@H](CO)NC(=O)CNC(=O)[C@@H](C)NC(=O)[C@@H](CC(=O)O)NC(=O)[C@@H](C)NC(=O)[C@@H](CCCNC(=N)N)NC(=O)[C@@H](C)NC(=O)[C@@H](CC(=O)O)NC(=O)[C@@H](C)NC(=O)[C@@H](CCCNC(=N)N)NC(=O)[C@@H](C)NC(=O)[C@@H](CC(=O)O)NC(=O)[C@@H](C)NC(=O)[C@@H](CCCNC(=N)N)NC(=O)[C@@H](C)NC(=O)[C@@H](CC(=O)O)NC(=O)[C@@H](C)NC(=O)[C@H](N)CCCNC(=N)N)C(C)C)[C@H](C)CC)C(=O)N[C@H](CCCNC(=N)N)C(=O)O [DPMD, Ac‐(D‐RADA)4‐CONH2] (H-[dR][dA][dD][dA][dR][dA][dD][dA][dR][dA][dD][dA][dR][dA][dD][dA]G[dS][dV][dL]G[dY][dI][dQ][dI][dR]-OH; N-terminus and C-terminus assumed)",β-sheet content,,33.9%
same,binding to Proteinase K (fluorescence anisotropy),Proteinase K,no appreciable binding
same,phase separation by turbidity,"[1]; absorbance at 405 nm, DPMD and trypsin/chymotrypsin mixtures 1:1 volume, across a range of pH levels and enzyme concentrations, Figure S5B",robust phase separation
same,phase separation with aprotinin-neutralized protease,"[1]; enzyme pre-incubated with aprotinin, CLSM, Figure S5C",no significant phase separation occurred
same,aggregate formation at shifted pH,"[1]; pH 5.6 and pH 8.4, mixtures with trypsin/chymotrypsin, Figure S5D",still became cloudy and formed microscopically visible droplets/aggregates
same,fluorescence recovery after photobleaching of microaggregates in ascitic fluid,[2]; Figure S13B,minimal fluorescence recovery after photobleaching
same,proteolytic activity of trypsin and chymotrypsin in ascitic fluid,[2]; Figure S13D,markedly suppressed

# — paper PMC12520456, “Regulating Enzyme Activity via Microaggregates Mediated by Phase Separation” (Advanced Science, 2025)
